Measured values published in patent US9061984B2 (University of Louisville Research Foundation, Inc., priority 2008, dated 2015).
≈ marks a conversion by molar mass, not a printed value. Like-named read-outs stand apart in the source and are kept apart here.

Assays:
[1] = tested on: VERO cells; experiment: Cytotoxicity on VERO cells (MTT), anti-T. cruzi study; details: for IC50: Chlorocebus sabaeus, Vero
[2] = as above; details: African green monkey
[3] = tested on: peritoneal macrophages; experiment: Toxicity to peritoneal macrophages (Trypan Blue count); format: cell-based, BALB/C mouse
Description: Peritoneal macrophages were prepared as follows. Non-inflammatory macrophages (10^6) were collected from each BALB/C mouse. The cells adhered at 37° C. after 2 h under 5% CO2 in a CO2 incubator. The plates were then rinsed two to three times with 0.5 mL of RPMI+buffer MOPS without fetal calf serum to eliminate non-adhering cells. The supernatant on the plates was replaced by fresh medium (RPMI+glutamine+FCS+antibiotics), 0.5 mL of medium per well. To determine the toxicity of the compounds to macrophages, dilutions of compounds were added on a part of the macrophages prepared above. […] The medium was then removed and 1 μL of sterile Trypan Blue was added. Cover glasses N° 1 were left where cells were plated and then the number of macrophages in a microscope was determined with a haemocytometer. All experiments were performed in triplicate.

[4] = tested on: axenic amastigotes of L. amazonensis (strain MHOM/BR/76/LTB-012); experiment: microbe, parasite or virus in culture; details: Leishmania amazonensis, 72 h, read-out: IC50 L. amazonensis
[5] = tested on: Trypanosoma cruzi (Tulahuen C4); experiment: In vitro anti-T. cruzi activity (β-galactosidase CPRG colorimetric assay in VERO monolayer); format: cell-based; details: Trypanosoma cruzi, TULAHUEN, Vero; for inhibition at 10 µg/mL: 120 h, 10 μg/mL of each compound, 120 hours, read-out: T. cruzi Inhib. (%)
[6] = tested on: 3T3 cells; experiment: Cell growth inhibition bioassay (sulforhodamine B); format: cell-based, mouse; details: 48 h, SRB
Description: (§1) The cytotoxicity of compounds was assayed as follows. […] Appropriate solvent controls were tested for comparison. The percent inhibition of cell growth relative to the control was evaluated colorimetrically using a sulforhodamine B dye by comparison to the control. The calorimetric procedure followed that published in Skehan et al., J. Nat. Cancer Inst., […], pp. 1107-1112 (1990) and Boyd & Paull, Drug Dev. Res., Vol. 34, pp. 91-109 (1995). […] The cell lines are: 3T3 cells are BALB/3T3 clone A31 embryonic mouse fibroblast cells; H460 cells are human large cell lung cancer cells; DU145 cells are human prostate carcinoma cells; MCF-7 cells are human breast adenocarcinoma cells; M-14 cells are human melanoma cells; HT-29 cells are human colon adenocarcinoma cells; PC3 cells are human prostate adenocarcinoma cells; K562 cells are human chronic myelogenous leukemia cells; and VERO cells are African Green Monkey kidney epithelial cells.

[7] = tested on: HT-29 cells; experiment: Cell growth inhibition bioassay (sulforhodamine B); format: cell-based, human; details: 48 h, SRB
Description: as §1

[8] = tested on: DU145 cells; experiment: Cell growth inhibition bioassay (sulforhodamine B); format: cell-based, human; details: 48 h, SRB
Description: as §1

[9] = tested on: M-14 cells; experiment: Cell growth inhibition bioassay (sulforhodamine B); format: cell-based, human; details: 48 h, SRB
Description: as §1

[10] = tested on: H460 cells; experiment: Cell growth inhibition bioassay (sulforhodamine B); format: cell-based, human; details: 48 h, SRB
Description: as §1

[11] = tested on: MCF-7 cells; experiment: Cell growth inhibition bioassay (sulforhodamine B); format: cell-based, human; details: 48 h, SRB
Description: as §1

[12] = tested on: K562 cells; experiment: Cell growth inhibition bioassay (sulforhodamine B); format: cell-based, human; details: 48 h, SRB
Description: as §1

[13] = tested on: axenic amastigotes of L. amazonensis (strain MHOM/BR/76/LTB-012); details: read-out: L. amazonensis IC50; Table 8b
[14] = tested on: M. tuberculosis H37Rv; experiment: Conventional aerobic (MABA) culture assay, luminescence MIC; format: cell-based, Mycobacterium tuberculosis; details: aerobic, 7 days, H37Rv
[15] = tested on: VERO cells; experiment: Cell growth inhibition bioassay (sulforhodamine B); format: cell-based, African Green Monkey; details: 48 h, SRB
Description: as §1

[16] = VERO cells, IC50 - VERO Cytotoxicity, Table 2
[17] = Mus musculus, Peritoneal macrophage, 48 h, Table 7, read-out: IC50 Macrophage
[18] = Table 2, read-out: IC50 - T. cruzi
[19] = Table 3, read-out: IC50 T. cruzi

## C=CCOc1cc(OC)c(C(=O)/C=C/c2ccccc2F)c(OCC=C)c1 [Compound I-15, (2E)-3-(2-Fluorophenyl)-1-[2-methoxy-4,6-bis(2-propenyloxy)phenyl]-2-propen-1-one]
[1]; read-out: IC50 VERO, Table 3
  IC50: 16.3 µM
[2]; [16]
  IC50: 6 µg/mL (≈ 16.3 µM)
[3]; [17]
  IC50: 13.3 µM
[4]
  IC50: 9.5 µM
[5]
  inhibition at 10 µg/mL: 66.5%
[5]; [18]
  IC50: 2.29 µg/mL
[5]; [19]
  IC50: 6.2 µM

## C=CCOc1cc(OC)c(C(=O)/C=C/c2ccncc2)c(OCC=C)c1 [Compound I-26, (2E)-1-[2-Methoxy-4,6-bis(2-propenyloxy)phenyl]-3-(4-pyridinyl)-2-propen-1-one]
[1]; read-out: IC50 VERO, Table 3
  IC50: 2.8 µM
[2]; [16]
  IC50: 1 µg/mL (≈ 2.85 µM)
[4]
  IC50: 0.6 µM
[5]
  inhibition at 10 µg/mL: 73.6%
[5]; [18]
  IC50: 0.52 µg/mL
[5]; [19]
  IC50: 1.5 µM

## C=CCOc1cc(OC)c(C(=O)/C=C/c2ccc(C)cc2)c(OCC=C)c1 [Compound I-24, (2E)-1-[2-Methoxy-4,6-bis(2-propenyloxy)phenyl]-3-(4-methylphenyl)-2-propen-1-one]
[1]; read-out: IC50 VERO, Table 3
  IC50: 211 µM
[2]; [16]
  IC50: 77 µg/mL (≈ 211 µM)
[4]
  IC50: 79.8 µM
[5]
  inhibition at 10 µg/mL: 60.2%
[5]; [18]
  IC50: 6.28 µg/mL
[5]; [19]
  IC50: 17.2 µM

## C=CCOc1cc(OC)c(C(=O)/C=C/c2ccc([N+](=O)[O-])cc2)c(OCC=C)c1 [Compound I-13, (2E)-1-[2-Methoxy-4,6-bis(2-propenyloxy)phenyl]-3-(4-nitrophenyl)-2-propen-1-one]
[1]; read-out: IC50 VERO, Table 3
  IC50: 12.6 µM
[2]; [16]
  IC50: 5 µg/mL (≈ 12.6 µM)
[3]; [17]
  IC50: 13.2 µM
[4]
  IC50: 8.3 µM
[5]
  inhibition at 10 µg/mL: 68.6%
[5]; [18]
  IC50: 1.62 µg/mL
[5]; [19]
  IC50: 4.1 µM

## C=CCOc1cc(OC)c(C(=O)/C=C/c2cccc(OC)c2)c(OCC=C)c1 [Compound I-11, (2E)-1-[2-Methoxy-4,6-bis(2-propenyloxy)phenyl]-3-(3-methoxyphenyl)-2-propen-1-one]
[1]; read-out: IC50 VERO, Table 3
  IC50: 142 µM
[2]; [16]
  IC50: 54 µg/mL (≈ 142 µM)
[3]; [17]
  IC50: 13.1 µM
[4]
  IC50: 8.7 µM
[5]
  inhibition at 10 µg/mL: 72.4%
[5]; [18]
  IC50: 5.37 µg/mL
[5]; [19]
  IC50: 14.2 µM

## C=CCOc1cc(OC)c(C(=O)/C=C/c2ccc(C(F)(F)F)cc2)c(OCC=C)c1 [Compound I-12, (2E)-1-[2-Methoxy-4,6-bis(2-propenyloxy)phenyl]-3-[4-(trifluoromethyl)phenyl]-2-propen-1-one]
[1]; read-out: IC50 VERO, Table 3
  IC50: 7.2 µM
[2]; [16]
  IC50: 3 µg/mL (≈ 7.17 µM)
[4]
  IC50: 128 µM
[5]
  inhibition at 10 µg/mL: 64.2%
[5]; [18]
  IC50: 6.53 µg/mL
[5]; [19]
  IC50: 15.6 µM

## C=CCOc1cc(OC)c(C(=O)/C=C/c2ccc(OC)cc2OC)c(OCC=C)c1 [Compound I-17, (2E)-3-(2,4-Dimethoxyphenyl)-1-[2-methoxy-4,6-bis(2-propenyloxy)phenyl]-2-propen-1-one]
[1]; read-out: IC50 VERO, Table 3
  IC50: 92.6 µM
[2]; [16]
  IC50: 38 µg/mL (≈ 92.6 µM)
[4]
  IC50: 134 µM
[5]
  inhibition at 10 µg/mL: 67.8%
[5]; [18]
  IC50: 5.38 µg/mL
[5]; [19]
  IC50: 13.1 µM

## C=CCOc1cc(OC)c(C(=O)/C=C/c2ccc(F)cc2)c(OCC=C)c1 [Compound I-23, (2E)-3-(4-Fluorophenyl)-1-[2-methoxy-4,6-bis(2-propenyloxy)phenyl]-2-propen-1-one]
[1]; read-out: IC50 VERO, Table 3
  IC50: 13.6 µM
[2]; [16]
  IC50: 5 µg/mL (≈ 13.6 µM)
[3]; [17]
  IC50: 13.8 µM
[4]
  IC50: 9.5 µM
[5]
  inhibition at 10 µg/mL: 66.5%
[5]; [18]
  IC50: 5.27 µg/mL
[5]; [19]
  IC50: 14.3 µM

## C=CCOc1cc(OC)c(C(=O)/C=C/c2ccccc2Br)c(OCC=C)c1 [Compound I-16]
[1]; read-out: IC50 VERO
  IC50: 13.9 µM
[2]
  IC50: 6 µg/mL (≈ 14 µM)
[3]; Mus musculus, Peritoneal macrophage, 48 h, read-out: IC50 Macrophage
  IC50: 5.4 µM
[4]
  IC50: 7.9 µM
[5]
  inhibition at 10 µg/mL: 63.4%
[5]; [18]
  IC50: 5.95 µg/mL
[5]; [19]
  IC50: 13.9 µM

## C=CCOc1cc(OC)c(C(=O)/C=C/c2cc(OC)c(OC)c(OC)c2)c(OCC=C)c1 [Compound I-20, (2E)-1-[2-Methoxy-4,6-bis(2-propenyloxy)phenyl]-3-(3,4,5-trimethoxyphenyl)-2-propen-1-one]
[1]; read-out: IC50 VERO, Table 3
  IC50: 40.9 µM
[2]; [16]
  IC50: 18 µg/mL (≈ 40.9 µM)
[3]; [17]
  IC50: 12 µM
[4]
  IC50: 8.2 µM
[5]
  inhibition at 10 µg/mL: 76.1%
[5]; [18]
  IC50: 1.5 µg/mL
[5]; [19]
  IC50: 3.4 µM

## C=CCOc1cc(OC)c(C(=O)/C=C/c2ccc(O)cc2)c(OCC=C)c1 [Compound I-09, (2E)-1-[2-Methoxy-4,6-bis(2-propenyloxy)phenyl]-3-(4-hydroxyphenyl)-2-propen-1-one]
[1]; read-out: IC50 VERO, Table 3
  IC50: 76.4 µM
[2]; [16]
  IC50: 28 µg/mL (≈ 76.4 µM)
[4]
  IC50: 85.2 µM
[5]
  inhibition at 10 µg/mL: 52.6%
[5]; [18]
  IC50: 7.44 µg/mL
[5]; [19]
  IC50: 20.3 µM

## Cc1ccc(C=NNc2ncnc3sc4c(c23)CCCC4)cc1 [II-05]
[6]
  GI50 in indicated cell line: 3T3: 12.1 µg/mL (≈ 37.5 µM)
[7]
  GI50 in indicated cell line: HT-29: >62.5 µg/mL
[8]
  GI50 in indicated cell line: DU145: >62.5 µg/mL
[9]
  GI50 in indicated cell line: M-14: >62.5 µg/mL
[10]
  GI50 in indicated cell line: H460: 42.9 µg/mL (≈ 133 µM)
[11]
  GI50 in indicated cell line: MCF-7: 4.2 µg/mL (≈ 13 µM)
[12]
  GI50 in indicated cell line: K562: 2.3 µg/mL (≈ 7.13 µM)
[13]
  IC50: 13.7 µM
[14]
  MIC MABA: >100 µg/mL
[1]; Lab B
  Cytotoxicity VERO Lab B: 11.0
[3]
  IC50: 6.3 µM
[15]
  GI50 in indicated cell line: VERO: 10.0 µg/mL (≈ 31 µM)

## C=CCOc1cc(OC)c(C(=O)/C=C/c2cc(OCC=C)c(Br)c(OCC=C)c2)c(OCC=C)c1 [Compound I-25, (2E)-3-(3,5-Bis(2-propenyloxy)-4-bromophenyl)-1-[2-methoxy-4,6-bis(2-propenyloxy)phenyl]-2-propen-1-one]
[1]; read-out: IC50 VERO, Table 3
  IC50: 96.3 µM
[2]; [16]
  IC50: 52 µg/mL (≈ 96 µM)
[4]
  IC50: > 180 µM
[5]
  inhibition at 10 µg/mL: 51.2%
[5]; [18]
  IC50: 3.73 µg/mL
[5]; [19]
  IC50: 6.9 µM

## C=CCOc1cc(OC)c(C(=O)/C=C/c2ccco2)c(OCC=C)c1 [Compound I-28, (2E)-3-(2-furanyl)-1-[2-methoxy-4,6-bis(2-propenyloxy)phenyl]-2-propen-1-one]
[1]; read-out: IC50 VERO, Table 3
  IC50: 191 µM
[2]; [16]
  IC50: 65 µg/mL (≈ 191 µM)
[4]
  IC50: > 300 µM
[5]
  inhibition at 10 µg/mL: 59.1%
[5]; [18]
  IC50: 4.14 µg/mL
[5]; [19]
  IC50: 12.2 µM

## C=CCOc1cc(OC)c(C(=O)/C=C/c2ccc(Cl)cc2)c(OCC=C)c1 [Compound I-14, (2E)-3-(4-Chlorophenyl)-1-[2-methoxy-4,6-bis(2-propenyloxy)phenyl]-2-propen-1-one]
[1]; read-out: IC50 VERO, Table 3
  IC50: 10.4 µM
[2]; [16]
  IC50: 4 µg/mL (≈ 10.4 µM)
[3]; [17]
  IC50: 13 µM
[4]
  IC50: 9.4 µM
[5]
  inhibition at 10 µg/mL: 66.3%
[5]; [18]
  IC50: 3.3 µg/mL
[5]; [19]
  IC50: 8.6 µM

## C=CCOc1cc(OC)c(C(=O)/C=C/c2ccccc2)c(OCC=C)c1 [Compound I-08, (2E)-1-[2-Methoxy-4,6-bis(2-propenyloxy)phenyl]-3-(phenyl)-2-propen-1-one]
[1]; read-out: IC50 VERO
  IC50: 17.1 µM
[2]; [16]
  IC50: 6 µg/mL (≈ 17.1 µM)
[3]; [17]
  IC50: 14.8 µM
[4]
  IC50: 9.4 µM
[5]
  inhibition at 10 µg/mL: 71.5%
[5]; [18]
  IC50: 6.7 µg/mL
[5]; [19]
  IC50: 17.1 µM
